Among the data in US6511978B1, “Pyrrole derivatives useful for farnesyl transferase inhibitors and their preparations” (LG Life Sciences, Ltd., priority 1999, dated 2003) are IC50 values, retold here.

Assay [1] concerns the target T1, Ras farnesyl transferase (Homo sapiens, UniProt P49354+P49356).
T1 construct: made in house
Put plainly: Ras farnesyl transferase enzyme inhibition, K-Ras substrate (H-Ras fused with polybasic lysine domain of K-Ras). The assay is classed as biochemical. To be noted: K-Ras substrate (fused protein of H-Ras with polybasic lysine domain of K-Ras); recombinant farnesyl transferase.

For assay [2], the target named is T2, Ras farnesyl transferase (Rattus norvegicus, UniProt Q02293+Q04631).
T2 construct: endogenous in cells; host or cells: Rat2 fibroblasts transformed with C-Harvey-Ras or with the H-Ras/K-Ras polybasic-domain fusion
Put plainly: In vivo (intracellular) Ras farnesylation inhibition in Rat2 cell line transformed with H-Ras fused with polybasic lysine domain of K-Ras. The assay is classed as cell-based. To be noted: Rat2 cells transformed with H-Ras/K-Ras polybasic domain fused protein; concentration inhibiting 50% of farnesyl binding; read-out: K-Ras CIC50. In a few lines: (§1)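 Transformed Rat2 fibroblasts treated with compound (1% DMSO) for 4 h, then labelled with [^35S]methionine 150 μCi/ml for 20 h. Ras immunoprecipitated with Y13-259 and resolved on 13.5% SDS-PAGE autoradiography; CIC50 is concentration inhibiting 50% of farnesylated Ras band.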

For assay [3], the target named is T2, Ras farnesyl transferase. Put plainly: In vivo (intracellular) Ras farnesylation inhibition in Rat2 cell line expressing C-Harvey-Ras. The assay is classed as cell-based. Conditions: Rat2 cells expressing C-Harvey-Ras; concentration inhibiting 50% of farnesyl binding; read-out: H-Ras CIC50. In outline: as §1
Assay [4] has as its target T1, Ras farnesyl transferase. Put plainly: Ras farnesyl transferase enzyme inhibition, H-Ras substrate. It counts as biochemical. To be noted: H-Ras substrate protein; recombinant farnesyl transferase; 30 minutes at 37° C.

As for `CN1CCN(C(=O)c2cn(Cc3c([N+](=O)[O-])ncn3Cc3ccc4c(c3)OCO4)cc2-c2cccc3ccccc23)CC1` [Example 21, 1-[1-(3,4-methylenedioxybenzyl)-4-nitro-1H-imidazol-5-ylmethyl]-3-(4-methylpiperazin-1-yl)carbonyl-4-(naphthalen-1-yl)-1H-pyrrole], the IC50 in assay [1] was more than 30 nM; in assay [2], more than 10000 nM; in assay [3], more than 30 nM; in assay [4] it was more than 30 nM.

Turning to `O=[N+]([O-])c1cn(Cc2cncn2CCc2ccc(Cl)cc2)cc1-c1cccc2ccccc12` [Example 41, 1-[1-(4-chlorophenethyl)-1H-imidazol-5-ylmethyl]-4-(naphthalen-1-yl)-3-nitro-1H-pyrrole], the IC50 in assay [1] was less than 4 nM; in assay [2] it was more than 10000 nM; in assay [3] it was more than 50 nM; in assay [4], less than 9 nM.

Regarding `CON1CCN(C(=O)c2cn(Cc3c(C)ncn3Cc3ccc4c(c3)OCO4)cc2-c2cccc3ccccc23)CC1` [Example 23, 3-(4-methoxypiperazin-1-yl)carbonyl-1-[4-methyl-1-(3,4-methylenedioxybenzyl)-1H-imidazol-5-ylmethyl]-4-(naphthalen-1-yl)-1H-pyrrole], the IC50 was more than 30 nM in assay [1], more than 10000 nM in assay [2], more than 30 nM in assay [3] and less than 22 nM in assay [4].

As to “1-[1-(3-benzyloxypropyl)-2-methyl-1H-imidazol-5-ylmethyl]-3-[N-(2-methoxyethyl)-N-methyl]carbamoyl-4-(naphthalen-1-yl)-1H-pyrrole [Example 34]”, the IC50 in assay [1] was less than 4.7 nM; in assay [2], more than 10000 nM; in assay [3] it was more than 12.5 nM; in assay [4] it was less than 4 nM.

Consider `COCCN(C)C(=O)c1cn(Cc2cncn2CCc2cccs2)cc1-c1cccc2ccccc12` [Example 10, 3-[N-(2-methoxyethyl)-N-methyl]carbamoyl-4-(naphthalen-1-yl)-1-{1-[2-(thiophen-2-yl)ethyl]-1H-imidazol-5-yl}methyl-1H-pyrrole], for which the IC50 in assay [1] is less than 100 nM; in assay [2], 10000 to 50000 nM; in assay [3], more than 25 nM; in assay [4], less than 10 nM.

For `Cc1ncc(Cn2cc(C(=O)N3CCN(C)CC3)c(-c3cccc4ccccc34)c2)n1CCCOCc1ccccc1` [Example 33, 1-[1-(3-benzyloxypropyl)-2-methyl-1H-imidazol-5-ylmethyl]-3-(4-methylpiperazin-1-yl)carbonyl-4-(naphthalen-1-yl)-1H-pyrrole], the IC50 was more than 30 nM in assay [1], more than 10000 nM in assay [2], more than 30 nM in assay [3] and more than 30 nM in assay [4].

Turning to `COCCN(C)C(=O)c1cn(Cc2cncn2CCCSc2ccccc2)cc1-c1cccc2ccccc12` [Example 5, 3-[N-(2-methoxyethyl)-N-methyl]carbamoyl-4-(naphthalen-1-yl)-1-[1-(3-thiophenoxypropyl)-1H-imidazol-5-yl]methyl-1H-pyrrole], the IC50 is less than 10 nM in assay [1], 10000 to 50000 nM in assay [2], less than 25 nM in assay [3] and less than 10 nM in assay [4].

As to `CCOCCCn1cnc(C)c1Cn1cc(C(=O)N2CCN(C)CC2)c(-c2cccc3ccccc23)c1` [Example 28, 1-[1-(3-ethoxypropyl)-4-methyl-1H-imidazol-5-ylmethyl]-3-(4-methylpiperazin-1-yl)carbonyl-4-(naphthalen-1-yl)-1H-pyrrole], the IC50 was less than 3.2 nM in assay [1], less than 10000 nM in assay [2], less than 6.25 nM in assay [3] and less than 2.2 nM in assay [4].

Take `Cc1ncn(Cc2ccc3c(c2)OCO3)c1Cn1cc(C(=O)N2CCN(C)CC2)c(-c2cc(Br)cc3ccccc23)c1` [Example 51, 4-(3-bromonaphthalen-1-yl)-1-[4-methyl-1-(3,4-methylenedioxybenzyl)-1H-imidazol-5-ylmethyl]-3-(4-methylpiperazin-1-yl)carbonyl-1H-pyrrole]: the IC50 is less than 30 nM in assay [1], more than 10000 nM in assay [2], less than 10 nM in assay [3] and less than 10 nM in assay [4].
